From US20100297020A1, “PHOSPHORYLATED AND PHOSPHONATED PYRONE ANALOGS FOR THERAPEUTIC TREATMENT” (Limerick Biopharma, Inc., priority 2008, published 2010)

Columns and labels:
Type in all cases: in vivo
[1] = system: male ZDF rats; test: 4 week study in ZDF rats (compound 2, compound 3)
Description: Seven week old male ZDF rats are used for the study.
Experimental Design: This study is a 4 week study Using 32 7-week old male ZDF rats, divided into 4 treatment arms (8 rats/arm).

[2] = system: ZDF rats; test: Oral glucose tolerance test (OGTT) in ZDF rats after the 4 week study; settings: glucose 2 g/Kg PO; compound 2 100 mg/kg, compound 3 50 mg/kg i.p.
Procedure: Following the 4 week study described in Example 26 above, the animals were fasted for 12 hours and on day-29, pre-drug blood samples are collected and glucose level and insulin level are measured. The animals are treated intraperitoneally (i.p.) with the following compounds:
Thirty (30) minutes after the treatment, pre-glucose blood samples are collected and the animals are then dosed with glucose (2 g/Kg, PO). Tail vein blood samples are collected at 30, 60, 90 and 120 minutes. Glucose levela and insulin leveal are measured. FIG. 31 show the plasma glucose level measured during OGTT. […] FIG. 32 show the plasma insulin level measured during OGTT. Phosphonated pyrone analogs raise insulin output in response to OGTT.

[3] = system: rats treated with tacrolimus; test: Renal pathology in rats co-administered with tacrolimus; settings: tacrolimus 0.5 mg/kg with vehicle or with Compound 2 at 11, 28 and 114 mg/kg, 25 days
Procedure: Tissue is removed from the kidney of rats treated with tacrolimus (Prograf®) at 0.5 mg/kg and inert vehicle, and from rats treated with tacrolimus (Prograf®) at 0.5 mg/kg and quercetin-3′-O-methylphosphonate (Compound 2) at 11 mg/kg, 28 mg/kg, and at 114 mg/kg for 25 days. […] The tissue from rats treated with Compound 2 and tacrolimus show no vacuoles.

Structure (SMILES): O=c1c(O)c(-c2ccc(O)c(OCP(=O)(O)O)c2)oc2cc(O)cc(O)c12 [Compound 2, Quercetin-3′-O-methylphosphonic acid]
- plasma insulin levels ([1]; 4 weeks daily i.p., compared to vehicle treated animals): require lower insulin levels to maintain nomal glucose levels
- plasma glucose levels ([1]; 4 weeks daily i.p., compound 2 100 mg/kg, compound 3 100 mg/kg day 4 and 5, 50 mg/kg day 6-28, rosiglitazone 6 mg/kg): maintains steady glucose levels
- glycated hemoglobin levels (% HbA1c) at termination ([1]; compared to vehicle treated animals): lower glycated hemoglobin levels
- triglycerides ([1]; day 14 and day 21, over vehicle controls): marked decreases in triglycerides
- plasma glucose level during OGTT [2]: protect against hyperglycemia
- vacuolation of kidney tissue [3]: no vacuoles
